Experimental data: patent publication US6365195B2, “Fungicidal active compound combinations” (Bayer Aktiengesellschaft, priority 1993, dated 2002)

Assays:
Type in all cases: in vivo
Botrytis cinerea = test: Botrytis test (bean)/protective; details: protective, 3 days after inoculation
Method: After the spray coating has dried on, 2 small pieces-of agar covered with Botrytis cinerea are placed on each leaf. The inoculated plants are placed in a darkened humid chamber at 20° C.
3 days after the inoculation, the size of the infected spots on the leaves is evaluated.

Leptosphaeria nodorum [1] = test: Leptosphaeria nodorum test (wheat)/protective; details: protective, 10 days after inoculation
Method: Solvent: 100 parts by weight of dimethylformamide
Emulsifier: 0.25 parts by weight of alkylaryl polyglycol ether
(§1) To produce a suitable preparation of active compound, 1-part by weight of active compound is mixed with the stated amounts of solvent and emulsifier, and the concentrate is diluted with water to the desired concentration.
(§2) To test for protective activity, young plants are sprayed with the preparation of active compound until dew-moist. After the spray coating has dried on, the plants are sprayed with a spore suspension of Leptosphaeria nodorum. The plants remain for 48 hours in an incubation cabin at 20° C. and 100% relative atmospheric humidity.
(§3) The plants are placed in a greenhouse at a temperature of 15° C. and a relative atmospheric humidity of about 80%.
(§4) Evaluation is effected 10 days after the inoculation.

[2] = system: Erysiphe graminis f. sp. hordei; test: Erysiphe test (wheat) protective; details: 7 days after inoculation
Method: Solvent: 10 parts by weight N-methyl-pyrrolidone
(§5) Emulsifier: 0.6 parts by weight alkylarylpoly-glycolether
as §1
To test for protective activity, young plants are dusted with spores of Erysiphe graminis f. sp. hordei. […]
The plants are placed in a greenhouse at a temperature of about 20° C. and a relative atmospheric humidity of about 80%, in order to promote the development of powdery mildew pustules.
(§6) Evaluation is carried out 7 days after the inoculation.

[3] = system: Erysiphe graminis f.sp. hordei; test: Erysiphe test (barley)/protective; details: protective, 50 g/ha, 7 days after inoculation
Method: (§7) Solvent: 10 parts by weight N-methyl-pyrrolidon
as §5
To produce a suitable preparation of active compound, 1 part by weight of active compound is mixed with the stated amounts of solvent and emulsifier, and the concentrate is diluted with water to the desired concentration.
To test for protective activity, young plants are sprayed with the preparation of active compound until dew-moist. After the spray coating has dried on, the plants are dusted with spores of Erysiphe graminis f.sp. hordei.
The plants are placed in a greenhouse at a temperature of about 20° C. and a relative atmospheric humidty of about 80%, in order to promote the development of powdery mildew pustules.
as §6

[4] = system: Erysiphe graminis f.sp.hordei; test: Erysiphe-test (wheat)/curative; details: curative, 200 g/ha, 7 days after inoculation
Method: Solvent: 10 parts by weight of N-methyl-pyrrolidone Emulsifier: 0.6 parts by weight of alkylaryl-polglycolether To produce a suitable preparation of active compound, 1-part by weight of active compound is mixed with the stated amounts of solvent and emulsifier, and the concentrate is diluted with water to the desired concentration. To test for curative activity, young plants are dusted with spores of Erysiphe graminis f.sp.hordei. 48 hours after the inoculation, the plants are sprayed with the preparation of active compound until dew-moist. The plants are placed in a greenhouse at a temperature of about 20° C. and a relative atmospheric humidity of about 80%, in order to promote the development of powdery mildew pustules. Evaluation is carried out 7 days after the inoculation.

Pyrenophora teres = Pyrenophora teres test (barley)/protective; details: protective, 25 g/ha, 7 days after inoculation
Method: as §7, §5, §1
To test for protective activity, young plants are sprayed with the preparation of active compound until dew moist. After the spray coating has dried off, the plants are sprayed with a conidia suspension of Pyrenophora teres. The plants then remain in an incubation cabin at 20° C. and 100% relative atmospheric humidity for 48 hours.
The plants are placed in a greenhouse at a temperature of about 20° C. and a relative atmospheric humidity of about […].
Evaluation is carried out 7 days after inoculation.

Leptosphaeria nodorum [5] = test: Leptosphaeria nodorum test (wheat)/curative; details: curative, 400 g/ha, 10 days after inoculation
Method: Solvent: 10 parts by weight of dimethyl-formamide
Emulsifier: 0.6 parts by weight of alkylaryl polyglycol ether
To produce a suitable preparation of active compound, 1-parts by weight of active compound is mixed with the stated amounts of solvent and emulsifier, and the concentrate is diluted with water to the desired concentration.
as §2, with “curative” for “protective”
as §3, §4

COC(=O)Nc1nc2ccccc2[nH]1 [Carbendazim, methyl benzimidazole-2-carbamate]
Degree of effectiveness in % of the untreated control (Botrytis cinerea; 5 ppm): 52%

N#Cc1c(Cl)c(Cl)c(Cl)c(C#N)c1Cl [Chlorothalonil, tetrachloro-isophthalo-dinitrile]
Degree of effectiveness in % of the untreated control (Botrytis cinerea; 200 ppm): 37%

CN(C)S(=O)(=O)N(SC(F)(Cl)Cl)c1ccccc1 [Dichlofluanid, dichlofluanid]
Degree of effectiveness in % of the untreated control (Botrytis cinerea; 100 ppm): 32%

Cc1ccc(N(SC(F)(Cl)Cl)S(=O)(=O)N(C)C)cc1 [Tolylfluanid, tolylfluanid]
Degree of effectiveness in % of the untreated control (Botrytis cinerea; 50 ppm): 32%

CC(C)(C)C(O)(CCc1ccc(Cl)cc1)Cn1cncn1 (stereo not drawn) [Tebuconazole]
Degree of effectiveness in % of the untreated control (Leptosphaeria nodorum [1]; spray liquor 25 ppm): 75%

O=[N+]([O-])c1cc(C(F)(F)F)c(Cl)c([N+](=O)[O-])c1Nc1ncc(C(F)(F)F)cc1Cl [Fluazinam, fluazinam]
Degree of effectiveness in % of the untreated control (Botrytis cinerea; 5 ppm): 20%

CC12CC1(C)C(=O)N(c1cc(Cl)cc(Cl)c1)C2=O (stereo not drawn) [Procymidone, procymidone]
Degree of effectiveness in % of the untreated control (Botrytis cinerea; 50 ppm): 44%

CO/C=C(\C(=O)OC)c1ccccc1Oc1cc(Oc2ccccc2C#N)ncn1 [(ηa)]
Degree of effectiveness in % of the untreated control ([2]; 200 g/ha): 79% | Degree of effectiveness in % of the untreated control [3]: 15%

CO/C=C(\C(=O)OC)c1ccccc1Oc1cc(Oc2ccccc2C#N)ncn1 [(ηb)]
Degree of effectiveness in % of the untreated control [4]: 75%

O=C1c2ccccc2C(=O)N1SC(Cl)(Cl)Cl [Phaltan, phaltan]
Degree of effectiveness in % of the untreated control (Botrytis cinerea; 50 ppm): 0%

Cc1cc(C)nc(Nc2ccccc2)n1 [Pyrimethanil, pyrimethanil]
Degree of effectiveness in % of the untreated control (Botrytis cinerea; 10 ppm): 0%

CO/N=C(\C(=O)OC)c1ccccc1COc1ccccc1C [(ηb)]
Degree of effectiveness in % of the untreated control ([2]; 25 g/ha): 85% | Degree of effectiveness in % of the untreated control [3]: 85% | Degree of effectiveness in % of the untreated control (Pyrenophora teres): 33% | Degree of activity in % of the untreated control (Leptosphaeria nodorum [5]): 49%

CC1(C(=O)Nc2ccc(O)c(Cl)c2Cl)CCCCC1 [(I)]
Degree of effectiveness in % of the untreated control ([2]; 25 g/ha): 30% | Degree of effectiveness in % of the untreated control ([2]; 200 g/ha): 85% | Degree of effectiveness in % of the untreated control [3]: 0% | Degree of effectiveness in % of the untreated control (Leptosphaeria nodorum [1]; concentration not given): 0% | Degree of effectiveness in % of the untreated control (Botrytis cinerea; 5 ppm): 51% | Degree of effectiveness in % of the untreated control [4]: 30% | Degree of effectiveness in % of the untreated control (Pyrenophora teres): 33% | Degree of activity in % of the untreated control (Leptosphaeria nodorum [5]): 25%
